Literature values, collected in US20220143046A1, “COMPOSITION AND METHODS FOR RECTAL DELIVERY OF 4-AAPA AND 5-ASA COMPOUNDS” (9 METERS BIOPHARMA, INC., priority 2019, published 2022).

System: toxin A-induced colonic inflammation
Details: rats; cited from earlier US patents and McVey et al. 2005

## O=C(O)Cc1ccc(/N=N/c2ccc(O)c(C(=O)O)c2)cc1 [INN-108, 5-(4-carboxymethyl-phenylazo)-2-hydroxybenzoic acid]
  inhibition of toxin A-induced colonic inflammation: potent inhibitor
